# Literature values in paper PMC5579141.
# Test: not told
SMILES,log partition benzene / water,log partition dibutyl ether / water,log partition dichloromethane / water,log partition heptane / water,log partition hexanol / water,log partition nitrobenzene / water,log partition nonanol / water,log partition octane / water,log partition tetrachloromethane / water,log partition toluene / water,log partition trichloromethane / water,also measured
CC(=O)CC(=O)c1ccccc1,3.05 log10,2.36 log10,3.48 log10,2.03 log10,2.48 log10,3.19 log10,2.43 log10,2.00 log10,2.77 log10,2.91 log10,3.50 log10,"log partition 1,2-dichloroethane / water: 3.23 log10; log partition bromobenzene / water: 3.36 log10; log partition chlorobenzene / water: 3.13 log10; log partition cyclohexane / water: 2.11 log10; log partition decane / water: 2.00 log10; log partition decanol / water: 2.38 log10; log partition m-xylene / water: 2.81 log10; log partition nonane / water: 1.97 log10; log partition octanol / water: 2.52 log10"
CC(=O)CC(=O)C(F)(F)F,0.15 log10,0.08 log10,0.40 log10,−0.57 log10,0.62 log10,0.30 log10,0.59 log10,−0.62 log10,0.02 log10,0.13 log10,0.33 log10,log partition dodecane / water: −0.76 log10; log partition ethylbenzene / water: −0.18 log10; log partition hexane / water: −0.51 log10; log partition pentanol / water: 0.52 log10
